The record followed here is US20220323406A1, “METHODS AND COMPOSITIONS FOR DIFFERENTIATING STEM CELLS” (Massachusetts Institute of Technology, priority 2019, published 2022).

SMILES strings stand for the structures.

One experiment has as its system ENR+CD organoids. As to the kind of experiment: Primary screen: ATP (CellTiter-Glo 3D, CTG) cell number/viability, 2.5-D 384-well ENR+CD organoids.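 Note: compounds given at plating and again on day 3 over a 6-day differentiation from ENR+CV stem-cell-enriched precursors, ATP measured on day 6, plate median as control.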 Particulars: primary screen. (In general: In ATP-based viability assays light output follows the ATP content of the culture.)
In experiment [1] the test system is ENR+CD organoids (ISC to Paneth cell differentiation). In words: Primary screen: CCh-stimulated lysozyme secretion LYZ.S, 2.5-D 384-well ENR+CD organoid differentiation. It is filed as cell-based, mouse. Particulars: primary screen. From the text:
(§1) High-throughput screening.

Experiment [2] shares this test system. In words: Primary screen: basal (non-stimulated) lysozyme secretion LYZ.NS, 2.5-D 384-well ENR+CD organoid differentiation. It is filed as cell-based, mouse. Particulars: primary screen; for Z.LYZ.NS: standard z score.
From the text: as §1

Where [3] appears, read: dose 0.08 uM, FC relative to plate median.
[4] abbreviates: dose 0.40 uM, FC relative to plate median.
Where [5] appears, read: dose 2.00 uM, FC relative to plate median.
Setting [6] is: dose 10.00 uM, FC relative to plate median.

Regarding `COc1ccc2c(c1)c(CC(=O)N1CCOCC1)c(C)n2C(=O)c1ccc(Cl)cc1` [BML-190], the Dose.FC.CTG is recorded as −0.003 log2 fold change in the experiment with ENR+CD organoids (dose 0.08 uM), −0.099 log2 fold change with ENR+CD organoids (dose 0.40 uM), −0.106 log2 fold change in the experiment with ENR+CD organoids (dose 2.00 uM) and −0.106 log2 fold change in the experiment with ENR+CD organoids (dose 10.00 uM). Further, the “Z.CTG (standard z score)” value in the experiment on ENR+CD organoids (dose 0.08 uM) is listed as −0.007; in the experiment on ENR+CD organoids (dose 0.40 uM), −0.237; in the experiment on ENR+CD organoids (dose 2.00 uM), −0.254; in the experiment with ENR+CD organoids (dose 10.00 uM), −0.254. For the same molecule, the Dose.FC.LYZ.S is 0.060 log2 fold change in experiment [1] (dose 0.08 uM), −0.037 log2 fold change in experiment [1] (dose 0.40 uM), 0.017 log2 fold change in experiment [1] (dose 2.00 uM) and 0.067 log2 fold change in experiment [1] (dose 10.00 uM). The Dose.FC.LYZ.NS in experiment [2] (dose 0.08 uM) is 0.072 log2 fold change; in experiment [2] (dose 0.40 uM) it was −0.017 log2 fold change; in experiment [2] (dose 2.00 uM) it was 0.116 log2 fold change; in experiment [2] (dose 10.00 uM) it was 0.209 log2 fold change. For the same molecule, the “Z.LYZ.NS (standard z score)” value in experiment [2] (dose 0.08 uM) was 0.623; in experiment [2] (dose 0.40 uM), −0.152; in experiment [2] (dose 2.00 uM) it was 1.011; in experiment [2] (dose 10.00 uM), 1.823.

With `COC(=O)CCSCc1ccc(-c2onc(C)c2NC(=O)OC(C)c2ccccc2Cl)cc1` (centres unmarked) [Ki16198], the “Dose.FC.CTG (log2 fold change)” value in the experiment with ENR+CD organoids (dose 0.08 uM) is given as −0.011; in the experiment on ENR+CD organoids (dose 0.40 uM), −0.108; in the experiment on ENR+CD organoids (dose 2.00 uM) it was −0.033; with ENR+CD organoids (dose 10.00 uM) it was 0.022. The “Z.CTG (standard z score)” value was −0.026 in the experiment on ENR+CD organoids (dose 0.08 uM), −0.258 with ENR+CD organoids (dose 0.40 uM), −0.078 in the experiment with ENR+CD organoids (dose 2.00 uM) and 0.052 with ENR+CD organoids (dose 10.00 uM). In addition, the “Dose.FC.LYZ.S (log2 fold change)” value is given as 0.027 in experiment [1] (dose 0.08 uM), 0.031 in experiment [1] (dose 0.40 uM), −0.015 in experiment [1] (dose 2.00 uM) and −0.037 in experiment [1] (dose 10.00 uM). Also, the “Dose.FC.LYZ.NS (log2 fold change)” value in experiment [2] (dose 0.08 uM) is on record as 0.005; in experiment [2] (dose 0.40 uM), −0.009; in experiment [2] (dose 2.00 uM), 0.060; in experiment [2] (dose 10.00 uM), −0.103. In addition, the “Z.LYZ.NS (standard z score)” value in experiment [2] (dose 0.08 uM) is on record as 0.044; in experiment [2] (dose 0.40 uM), −0.076; in experiment [2] (dose 2.00 uM) it was 0.519; in experiment [2] (dose 10.00 uM), −0.899.

For `O=C(O)c1cccc(-c2noc(-c3ccccc3F)n2)c1` [Ataluren (PTC124)], the Dose.FC.CTG is on record as 0.267 log2 fold change in the experiment on ENR+CD organoids (dose 0.08 uM), −0.340 log2 fold change in the experiment on ENR+CD organoids (dose 0.40 uM), −0.042 log2 fold change with ENR+CD organoids (dose 2.00 uM) and 0.006 log2 fold change in the experiment on ENR+CD organoids (dose 10.00 uM). Moreover, the “Z.CTG (standard z score)” value in the experiment with ENR+CD organoids (dose 0.08 uM) is recorded as 0.639; in the experiment on ENR+CD organoids (dose 0.40 uM), −0.813; with ENR+CD organoids (dose 2.00 uM), −0.100; in the experiment with ENR+CD organoids (dose 10.00 uM), 0.013. Also, the Dose.FC.LYZ.S was 0.051 log2 fold change in experiment [1] (dose 0.08 uM), 0.034 log2 fold change in experiment [1] (dose 0.40 uM), 0.058 log2 fold change in experiment [1] (dose 2.00 uM) and 0.005 log2 fold change in experiment [1] (dose 10.00 uM). Besides, the Dose.FC.LYZ.NS in experiment [2] (dose 0.08 uM) was found to be 0.029 log2 fold change; in experiment [2] (dose 0.40 uM), 0.042 log2 fold change; in experiment [2] (dose 2.00 uM), 0.131 log2 fold change; in experiment [2] (dose 10.00 uM), 0.009 log2 fold change. In addition, the “Z.LYZ.NS (standard z score)” value amounted to 0.253 in experiment [2] (dose 0.08 uM), 0.362 in experiment [2] (dose 0.40 uM), 1.140 in experiment [2] (dose 2.00 uM) and 0.077 in experiment [2] (dose 10.00 uM).

With `O=C(O)CCc1ccc(NCc2cccc(Oc3ccccc3)c2)cc1` [GW9508], the “Dose.FC.CTG (log2 fold change)” value in the experiment with ENR+CD organoids (dose 0.08 uM) is 0.063; with ENR+CD organoids (dose 0.40 uM) it was 0.174; in the experiment with ENR+CD organoids (dose 2.00 uM), −0.001; in the experiment on ENR+CD organoids (dose 10.00 uM), −0.059. For the same molecule, the “Z.CTG (standard z score)” value in the experiment with ENR+CD organoids (dose 0.08 uM) is reported as 0.151; with ENR+CD organoids (dose 0.40 uM), 0.417; in the experiment on ENR+CD organoids (dose 2.00 uM), −0.003; in the experiment with ENR+CD organoids (dose 10.00 uM), −0.140. Further, the “Dose.FC.LYZ.S (log2 fold change)” value in experiment [1] (dose 0.08 uM) was 0.067; in experiment [1] (dose 0.40 uM), 0.049; in experiment [1] (dose 2.00 uM) it was 0.000; in experiment [1] (dose 10.00 uM), −0.045. Also, the “Dose.FC.LYZ.NS (log2 fold change)” value in experiment [2] (dose 0.08 uM) is 0.075; in experiment [2] (dose 0.40 uM), 0.019; in experiment [2] (dose 2.00 uM) it was −0.011; in experiment [2] (dose 10.00 uM) it was −0.040. The “Z.LYZ.NS (standard z score)” value is 0.650 in experiment [2] (dose 0.08 uM), 0.169 in experiment [2] (dose 0.40 uM), −0.092 in experiment [2] (dose 2.00 uM) and −0.350 in experiment [2] (dose 10.00 uM).

As for `CCOC(=O)CCNc1cc(N2CCc3ccccc3CC2)nc(-c2ccccn2)n1.Cl` [GSK J4 HCl], the “Dose.FC.CTG (log2 fold change)” value in the experiment on ENR+CD organoids (dose 0.08 uM) was determined as 0.124; in the experiment on ENR+CD organoids (dose 0.40 uM), 0.099; in the experiment with ENR+CD organoids (dose 2.00 uM), 0.002; in the experiment on ENR+CD organoids (dose 10.00 uM), 0.233. Besides, the “Z.CTG (standard z score)” value in the experiment with ENR+CD organoids (dose 0.08 uM) stood at 0.297; in the experiment with ENR+CD organoids (dose 0.40 uM) it was 0.237; with ENR+CD organoids (dose 2.00 uM), 0.006; with ENR+CD organoids (dose 10.00 uM), 0.558. Also, the “Dose.FC.LYZ.S (log2 fold change)” value in experiment [1] (dose 0.08 uM) was 0.086; in experiment [1] (dose 0.40 uM), 0.109; in experiment [1] (dose 2.00 uM), 0.041; in experiment [1] (dose 10.00 uM), −0.002. For the same molecule, the “Dose.FC.LYZ.NS (log2 fold change)” value in experiment [2] (dose 0.08 uM) is on record as 0.058; in experiment [2] (dose 0.40 uM), 0.050; in experiment [2] (dose 2.00 uM) it was 0.018; in experiment [2] (dose 10.00 uM), −0.001. Besides, the “Z.LYZ.NS (standard z score)” value in experiment [2] (dose 0.08 uM) is given as 0.508; in experiment [2] (dose 0.40 uM), 0.433; in experiment [2] (dose 2.00 uM) it was 0.153; in experiment [2] (dose 10.00 uM), −0.006.

As to `CN(C)CCc1c[nH]c2ccc(Cn3cncn3)cc12` [Rizatriptan Benzoate], the Dose.FC.CTG in the experiment with ENR+CD organoids (setting [3]) was 0.214 log2 fold change; with ENR+CD organoids (setting [4]), 0.109 log2 fold change; in the experiment on ENR+CD organoids (setting [5]), 0.126 log2 fold change; with ENR+CD organoids (setting [6]), −0.054 log2 fold change. For the same molecule, the Dose.FC.LYZ.S in experiment [1] (setting [3]) is 0.179 log2 fold change; in experiment [1] (setting [4]), 0.019 log2 fold change; in experiment [1] (setting [5]), −0.009 log2 fold change; in experiment [1] (setting [6]) it was 0.105 log2 fold change. Moreover, the Dose.FC.LYZ.NS in experiment [2] (setting [3]) is recorded as 0.070 log2 fold change; in experiment [2] (setting [4]), 0.148 log2 fold change; in experiment [2] (setting [5]), 0.027 log2 fold change; in experiment [2] (setting [6]) it was 0.000 log2 fold change. Also, the Z.LYZ.NS in experiment [2] (dose 0.08 uM) is on record as 0.613; in experiment [2] (dose 0.40 uM), 1.289; in experiment [2] (dose 2.00 uM), 0.238; in experiment [2] (dose 10.00 uM), −0.003.
